Source: patent US10711002B2, “Purine compounds and method for the treatment of cancer” (THE ROYAL INSTITUTION FOR THE ADVANCEMENT OF …, priority 2016, dated 2020)

Legend:
[1] = tested on: MDA-MB-231 cells; assay: Tumorsphere formation; type: cell-based; details: MDA-MB-231, 1 μM for 72H, reseeded in suspension
Experimental: (§1) Cancer cell lines: MDA-MB-231, BT-20, Panc-1, OVCAR-3, 4T1 and RENCA were obtained from ATCC. Epithelial breast adenocarcinoma cell line PMC42-LA, were kindly provided by Dr. Ackland. Mia-Paca cells were kindly provided by Dr. George Zogopoulos. All cancer cell lines were cultured in RPMI1640× with 10% fetal bovine serum with 1% penicillin/streptomycin, and maintained at 37° C. in 5% atmosphere of CO2. In the case of growth factor stimulation, cells were serum starved for no longer than 12H, and then stimulated with 20 ng/ml EGF for 40 minutes.
(§2) After treatment with 1 μM Compound 1 for 72H, MDA-MB-231 and BT-20 cells were digested with 0.25% trypsin and reseeded at 2.5×10^4 cells/ml in 60 mm Ultralow Adherence plates (Corning) in DMEM/F12 supplemented with 5 ug/ml human insulin, 20 ng/ml human epidermal growth factor, 0.5 ug/ml hydrocortisone and 2% B27 (Invitrogen). Tumorspheres were then visualized (FIG. 1A) and then quantified (FIG. 1B). An important feature of cancer stem-like cells is their enhanced tumorsphere forming potential when grown in suspension. The tumorsphere forming capacity of Compound 1-treated MDA-MB-231 and BT-20 were analyzed in FIG. 1A. Consistent with previous characterization of these cells, in the absence of Compound 1, both MDA-MB-231 and BT-20 are capable of propagating as small individual tumorspheres that survive passaging.

[2] = tested on: BT-20 cells; assay: Tumorsphere formation; type: cell-based; details: BT-20, 1 μM for 72H, reseeded in suspension
Experimental: as §1, §2

**Q.** Which viable tumorspheres [1] does the source give for O=c1c2ccccc2[se]n1-c1nc(NC2CCCCC2)c2nc[nH]c2n1 [Compound 1] here?
**A.** The viable tumorspheres was “dramatic reduction in viable tumorspheres”.

**Q.** What about the viable tumorspheres [2] of the same compound?
**A.** Its viable tumorspheres is “dramatic reduction in viable tumorspheres”.
